According to US7739055B2, “Methods and systems for generating and evaluating peptides” (priority 2005, dated 2010):
In brackets after ≈: the same amount, converted by molar mass. Read-outs that look alike come from different tables or passages of the source. Where a SMILES comes first, the peptide text is derived from it.

Legend:
[1] = first concentration that prohibits growth by OD at 24 hours, Table 1

MIC E. coli (Escherichia coli; 24 h)	MIC B. cereus (B. cereus; [1])	SMILES	MIC B. cereus (B. cereus)	MIC E. coli (Escherichia coli; [1])	MIC B. cereus (B. cereus; 24 h)
		CC[C@H](C)[C@H](NC(=O)CNC(=O)[C@@H](NC(=O)[C@H](CCCCN)NC(=O)[C@H](CCCCN)NC(=O)[C@H](Cc1ccccc1)NC(=O)[C@H](CC(C)C)NC(=O)[C@H](CCCCN)NC(=O)[C@H](Cc1c[nH]c2ccccc12)NC(=O)[C@@H](N)CCCCN)[C@@H](C)CC)C(=O)NCC(=O)N[C@@H](CCCCN)C(=O)N[C@@H](Cc1ccccc1)C(=O)N[C@@H](CC(C)C)C(=O)N[C@@H](Cc1c[nH]cn1)C(=O)N[C@@H](CO)C(=O)N[C@@H](C)C(=O)N[C@@H](CCCCN)C(=O)N[C@@H](CCCCN)C(=O)N[C@@H](Cc1ccccc1)C(=O)O [Cec A Mag 2] (H-KWKLFKKIGIGKFLHSAKKF-OH; N-terminus and C-terminus assumed)	+ (key: +: MIC greater than 256 ug/mL; ++: MIC greater than 128 ug/mL, not sufficiently soluble to test as 256 ug/mL)	32 µg/mL (≈ 13.3 µM)	
		CC[C@H](C)[C@H](NC(=O)CNC(=O)[C@H](CCC(=O)O)NC(=O)[C@H](CO)NC(=O)[C@@H](NC(=O)[C@H](CCCNC(=N)N)NC(=O)[C@H](CCCCN)NC(=O)[C@H](CCCCN)NC(=O)[C@H](C)NC(=O)[C@H](CO)NC(=O)[C@H](CC(N)=O)NC(=O)[C@H](CCC(=O)O)NC(=O)[C@H](CC(C)C)NC(=O)[C@H](CCCCN)NC(=O)[C@H](CCCCN)NC(=O)[C@H](C)NC(=O)[C@@H](NC(=O)[C@H](CCCCN)NC(=O)[C@H](CO)NC(=O)[C@H](CC(C)C)NC(=O)[C@H](Cc1c[nH]c2ccccc12)NC(=O)[C@@H](N)CO)[C@@H](C)O)[C@@H](C)CC)C(=O)N[C@@H](C)C(=O)N[C@H](C(=O)N[C@@H](C)C(=O)N[C@H](C(=O)N[C@@H](CCC(N)=O)C(=O)NCC(=O)NCC(=O)N1CCC[C@H]1C(=O)N[C@@H](CCCNC(=N)N)C(=O)O)[C@@H](C)CC)[C@@H](C)CC [Cecropin P1] (H-SWLSKTAKKLENSAKKRISEGIAIAIQGGPR-OH; N-terminus and C-terminus assumed)	+ (key: +: MIC greater than 256 ug/mL; ++: MIC greater than 128 ug/mL, not sufficiently soluble to test as 256 ug/mL)	2 µg/mL (≈ 0.599 µM)	
		CC[C@H](C)[C@H](NC(=O)CN)C(=O)NCC(=O)N[C@@H](C)C(=O)N[C@H](C(=O)N[C@@H](CC(C)C)C(=O)N[C@@H](CCCCN)C(=O)N[C@H](C(=O)N[C@@H](CC(C)C)C(=O)N[C@H](C(=O)N[C@H](C(=O)NCC(=O)N[C@@H](CC(C)C)C(=O)N1CCC[C@H]1C(=O)N[C@@H](C)C(=O)N[C@@H](CC(C)C)C(=O)N[C@H](C(=O)N[C@@H](CO)C(=O)N[C@@H](Cc1c[nH]c2ccccc12)C(=O)N[C@H](C(=O)N[C@@H](CCCCN)C(=O)N[C@@H](CCCNC(=N)N)C(=O)N[C@@H](CCCCN)C(=O)N[C@@H](CCCNC(=N)N)C(=O)N[C@@H](CCC(N)=O)C(=O)N[C@@H](CCC(N)=O)C(N)=O)[C@@H](C)CC)[C@@H](C)CC)[C@@H](C)O)[C@@H](C)O)C(C)C)C(C)C [Melittin]			8 µg/mL (≈ 2.81 µM)
128 µg/mL (≈ 57.4 µM)	+ (MIC greater than 256 ug/mL)	CC(C)[C@H](N)C(=O)N[C@H](C(=O)N[C@@H](Cc1ccccc1)C(=O)N[C@@H](CCCNC(=N)N)C(=O)N[C@H](C(=O)N[C@@H](C)C(=O)N[C@@H](CO)C(=O)N[C@@H](CCCCN)C(=O)N[C@H](C(=O)N[C@@H](Cc1ccccc1)C(=O)N1CCC[C@H]1C(=O)N[C@@H](C)C(=O)N[C@H](C(=O)N[C@@H](Cc1ccc(O)cc1)C(=O)N[C@@H](CS)C(=O)N[C@H](C(=O)N[C@H](C(=O)N[C@@H](CO)C(=O)N[C@@H](CCCCN)C(=O)N[C@@H](CCCCN)C(=O)O)C(C)C)[C@@H](C)O)C(C)C)C(C)C)C(C)C)C(C)C [Peptide 2] (H-VVFRVASKVFPAVYCTVSKK-OH; N-terminus and C-terminus assumed)			
256 µg/mL (≈ 124 µM)	+ (MIC greater than 256 ug/mL)	CC[C@H](C)[C@H](NC(=O)[C@H](CC(=O)O)NC(=O)[C@H](CCCCN)NC(=O)[C@@H](NC(=O)[C@H](CC(C)C)NC(=O)[C@H](CO)NC(=O)[C@H](CCSC)NC(=O)[C@H](CC(C)C)NC(=O)CN)C(C)C)C(=O)N[C@@H](C)C(=O)N[C@@H](CCCCN)C(=O)N[C@@H](CC(C)C)C(=O)N[C@@H](C)C(=O)N[C@@H](C)C(=O)N[C@@H](CCCCN)C(=O)N[C@@H](CCC(N)=O)C(=O)NCC(=O)N[C@@H](C)C(=O)N[C@@H](CCCCN)C(=O)N[C@@H](CCC(N)=O)C(=O)O [Peptide 9] (H-GLMSLVKDIAKLAAKQGAKQ-OH; N-terminus and C-terminus assumed)			
128 µg/mL (≈ 59.5 µM)	+ (MIC greater than 256 ug/mL)	CC[C@H](C)[C@H](NC(=O)[C@@H](NC(=O)[C@H](CS)NC(=O)[C@H](Cc1ccc(O)cc1)NC(=O)[C@@H](NC(=O)[C@H](C)NC(=O)[C@@H]1CCCN1C(=O)[C@H](Cc1ccccc1)NC(=O)[C@@H](NC(=O)[C@H](CCCCN)NC(=O)[C@H](CO)NC(=O)[C@H](C)NC(=O)[C@H](CC(C)C)NC(=O)[C@H](CCCCN)NC(=O)CNC(=O)[C@H](CC(C)C)NC(=O)[C@H](C)N)C(C)C)C(C)C)[C@@H](C)O)C(=O)N[C@@H](CO)C(=O)N[C@@H](CCCNC(=N)N)C(=O)N[C@@H](CCCCN)C(=O)O [Peptide 23] (H-ALGKLASKVFPAVYCTISRK-OH; N-terminus and C-terminus assumed)			
128 µg/mL (≈ 62.3 µM)	+ (MIC greater than 256 ug/mL)	CC[C@H](C)[C@H](NC(=O)[C@H](Cc1ccccc1)NC(=O)CN)C(=O)NCC(=O)N[C@@H](CCCCN)C(=O)N[C@@H](CC(C)C)C(=O)N[C@@H](C)C(=O)N[C@@H](CO)C(=O)N[C@@H](CCCCN)C(=O)N[C@H](C(=O)N[C@H](C(=O)N1CCC[C@H]1C(=O)N[C@@H](CO)C(=O)N[C@H](C(=O)N[C@@H](Cc1ccc(O)cc1)C(=O)N[C@@H](CS)C(=O)N[C@@H](CCCCN)C(=O)N[C@H](C(=O)N[C@H](C(=O)NCC(=O)O)[C@@H](C)O)C(C)C)C(C)C)C(C)C)C(C)C [Peptide 24] (H-GFIGKLASKVVPSVYCKVTG-OH; N-terminus and C-terminus assumed)			
128 µg/mL (≈ 58.8 µM)	+ (MIC greater than 256 ug/mL)	CC[C@H](C)[C@H](NC(=O)[C@H](CCCCN)NC(=O)[C@H](Cc1ccccc1)NC(=O)[C@@H](NC(=O)[C@H](C)NC(=O)[C@@H]1CCCN1)C(C)C)C(=O)N[C@@H](C)C(=O)N[C@@H](CO)C(=O)N[C@@H](CCCCN)C(=O)N[C@H](C(=O)N[C@H](C(=O)N1CCC[C@H]1C(=O)N[C@@H](CO)C(=O)N[C@H](C(=O)N[C@@H](Cc1ccc(O)cc1)C(=O)N[C@@H](CS)C(=O)N[C@@H](CCCCN)C(=O)N[C@H](C(=O)N[C@@H](CO)C(=O)N[C@@H](CCCNC(=N)N)C(=O)O)C(C)C)C(C)C)C(C)C)C(C)C [Peptide 29] (H-PAVFKIASKVVPSVYCKVSR-OH; N-terminus and C-terminus assumed)			
256 µg/mL (≈ 125 µM)	+ (MIC greater than 256 ug/mL)	CC(C)C[C@H](NC(=O)CNC(=O)[C@H](Cc1ccccc1)NC(=O)[C@H](CC(C)C)NC(=O)[C@H](C)NC(=O)CN)C(=O)N[C@@H](C)C(=O)N[C@@H](CO)C(=O)N[C@@H](CCCCN)C(=O)N[C@H](C(=O)N[C@@H](Cc1ccccc1)C(=O)N1CCC[C@H]1C(=O)N[C@@H](C)C(=O)N[C@H](C(=O)N[C@@H](Cc1ccccc1)C(=O)NCC(=O)N[C@@H](C)C(=O)N[C@@H](Cc1ccccc1)C(=O)N[C@@H](CCCCN)C(=O)N[C@@H](CCCCN)C(=O)O)C(C)C)C(C)C [Peptide 30] (H-GALFGLASKVFPAVFGAFKK-OH; N-terminus and C-terminus assumed)			
256 µg/mL (≈ 120 µM)	+ (MIC greater than 256 ug/mL)	CC[C@H](C)[C@H](NC(=O)[C@H](CCSC)NC(=O)[C@H](CO)NC(=O)[C@@H](NC(=O)[C@H](CC(C)C)NC(=O)[C@H](CO)NC(=O)[C@@H]1CCCN1C(=O)[C@@H](NC(=O)[C@@H](NC(=O)[C@H](CCCCN)NC(=O)[C@H](CO)NC(=O)[C@H](C)NC(=O)[C@@H](NC(=O)[C@H](CCCNC(=N)N)NC(=O)CNC(=O)[C@@H](NC(=O)[C@H](Cc1ccccc1)NC(=O)[C@H](CO)NC(=O)[C@@H](N)CC(C)C)C(C)C)C(C)C)C(C)C)C(C)C)[C@@H](C)CC)C(=O)N[C@@H](CCCCN)C(=O)O [Peptide 55] (H-LSFVGRVASKVVPSLISMIK-OH; N-terminus and C-terminus assumed)			
128 µg/mL (≈ 59.8 µM)	+ (MIC greater than 256 ug/mL)	CC(C)C[C@H](NC(=O)[C@H](CCCCN)NC(=O)[C@H](Cc1ccccc1)NC(=O)[C@@H](NC(=O)[C@H](C)NC(=O)[C@@H]1CCCN1C(=O)[C@@H](N)CC(C)C)C(C)C)C(=O)N[C@@H](C)C(=O)N[C@@H](CO)C(=O)N[C@@H](CCCCN)C(=O)N[C@H](C(=O)N[C@@H](Cc1ccccc1)C(=O)N1CCC[C@H]1C(=O)N[C@@H](C)C(=O)N[C@H](C(=O)N[C@@H](Cc1ccc(O)cc1)C(=O)N[C@@H](CS)C(=O)N[C@@H](CCCCN)C(=O)N[C@@H](C)C(=O)N[C@@H](CO)C(=O)O)C(C)C)C(C)C [Peptide 62] (H-LPAVFKLASKVFPAVYCKAS-OH; N-terminus and C-terminus assumed)			

SMILES	MIC E. coli (Escherichia coli; 24 h)	MIC B. cereus (B. cereus; [1])	MIC B. cereus (B. cereus)	MIC E. coli (Escherichia coli; [1])	MIC B. cereus (B. cereus; 24 h)
CC[C@H](C)[C@H](NC(=O)CN)C(=O)NCC(=O)N[C@@H](CCCCN)C(=O)N[C@@H](Cc1ccccc1)C(=O)N[C@@H](CC(C)C)C(=O)N[C@@H](Cc1c[nH]cn1)C(=O)N[C@@H](CO)C(=O)N[C@@H](C)C(=O)N[C@@H](CCCCN)C(=O)N[C@@H](CCCCN)C(=O)N[C@@H](Cc1ccccc1)C(=O)NCC(=O)N[C@@H](CCCCN)C(=O)N[C@@H](C)C(=O)N[C@@H](Cc1ccccc1)C(=O)N[C@H](C(=O)NCC(=O)N[C@@H](CCC(=O)O)C(=O)N[C@H](C(=O)N[C@@H](CCSC)C(=O)N[C@@H](CC(N)=O)C(=O)N[C@@H](CO)C(=O)O)[C@@H](C)CC)C(C)C [Magainin 2] (H-GIGKFLHSAKKFGKAFVGEIMNS-OH; N-terminus and C-terminus assumed)	64 µg/mL (≈ 25.9 µM)				256 µg/mL (≈ 104 µM)
